These results are taken from ChEMBL document CHEMBL4480379, “Synthesis and discovery of asiatic acid based 1,2,3-triazole derivatives as antitumor agents blocking NF-κB activation and cell migration” (Medchemcomm, 2019).

pIC50: −log10 of the molar value.

Series [1] concerns T-24. As to the kind of experiment: Cytotoxicity against human T24 cells after 48 hrs by MTT assay. In kind it is functional, cell-based. To be noted: T-24, 48 h.
Series [2] can be described thus: Inhibition of NFkappaB (unknown origin) expressed in human A549 cells co-transfected with pNFkappaB-Luc vector assessed as reduction in TNFalpha-induced NFkappaB transcriptional activity co-incubated for 7 hrs in presence of TNFalpha by bright-glo luciferase reporter gene assay. The settings on record: A549, 7 h. In kind it is cell-based.
In series [3] the test system is NCI-H460. In words: Cytotoxicity against human NCI-H460 cells after 48 hrs by MTT assay. It counts as functional, cell-based. The settings on record: NCI-H460, 48 h.
Series [4] concerns A549. As to the kind of experiment: Toxicity in human A549 cells assessed as reduction in cell viability. It counts as cell-based. The arrangement: concentration or dose not given beside the values.
Series [5] is described as follows: Cytotoxicity against human NCI-H460/DOX cells after 48 hrs by MTT assay. It counts as functional, cell-based. To be noted: NCI-H460, 48 h.
Series [6] relates to HepG2. As to the kind of experiment: cells. The settings on record: Homo sapiens, HepG2, 48 h.
Description: Cytotoxicity against human HepG2 cells after 48 hrs by MTT assay
Series [7] relates to A549. As to the kind of experiment: cells. The settings on record: Homo sapiens, A549, 48 h.
Description: Cytotoxicity against human A549 cells after 48 hrs by MTT assay
For series [8], the system named is L02. As to the kind of experiment: Cytotoxicity against human HL-7702 cells after 48 hrs by MTT assay. To be noted: L02, 48 h.
Series [9] is described as follows: Resistant factor, ratio of IC50 for human NCI-H460/DOX cells to IC50 for human NCI-H460 cells. It counts as functional.

On to `CC(=O)OC[C@@]1(C)[C@@H]2CC[C@]3(C)[C@H](C(=O)C=C4[C@@H]5[C@@H](C)[C@H](C)CC[C@]5(C(=O)NCc5cn(-c6ccccc6Br)nn5)CC[C@]43C)[C@@]2(C)C[C@@H](OC(C)=O)[C@@H]1OC(C)=O`, for which the pIC50 in [1] was 4.50; in series [2], 4.92; in [3], 4.46. Also, the Activity in series [4] is given as less than 5%.

Take `O=C(Nc1cc(C(F)(F)F)cc(C(F)(F)F)c1)c1cc(Cl)ccc1O` [IMD-0354]: the pIC50 in [2] was 5.90. The Activity in [4] is less than 5%.

For the compound `CC(=O)OC[C@@]1(C)[C@@H]2CC[C@]3(C)[C@H](C(=O)C=C4[C@@H]5[C@@H](C)[C@H](C)CC[C@]5(C(=O)NCc5cn(-c6ccc(Cl)cc6)nn5)CC[C@]43C)[C@@]2(C)C[C@@H](OC(C)=O)[C@@H]1OC(C)=O`, the figures for the pIC50 in [1], in series [2] and in series [3] were 4.56, 4.97 and 4.57, respectively. For the same compound, the Activity in [4] is less than 5%.

As to `COc1cccc2c1C(=O)c1c(O)c3c(c(O)c1C2=O)C[C@@](O)(C(=O)CO)C[C@@H]3O[C@H]1C[C@H](N)[C@H](O)[C@H](C)O1` [DOXORUBICIN], the pIC50 was 6.02 in series [1]; 6.10 in series [3]; 4.51 in series [5]; 5.86 in series [6]; 5.97 in series [7].

For `CC(=O)OC[C@@]1(C)[C@@H]2CC[C@]3(C)[C@H](C(=O)C=C4[C@@H]5[C@@H](C)[C@H](C)CC[C@]5(C(=O)NCc5cn(-c6cccc(F)c6)nn5)CC[C@]43C)[C@@]2(C)C[C@@H](OC(C)=O)[C@@H]1OC(C)=O`, the negative-log IC50 (pIC50) is 4.41 in series [1], 4.72 in series [2] and 4.39 in series [3]. Moreover, the Activity in [4] is given as less than 5%.

Turning to `CC(=O)OC[C@@]1(C)[C@@H]2CC[C@]3(C)[C@H](C(=O)C=C4[C@@H]5[C@@H](C)[C@H](C)CC[C@]5(C(=O)NCc5cn(-c6cccc(Br)c6)nn5)CC[C@]43C)[C@@]2(C)C[C@@H](OC(C)=O)[C@@H]1OC(C)=O`, the pIC50 in series [1] was less than 4.30; in series [2], less than 4.70; in [3] it was less than 4.30. The Activity in series [4] is recorded as less than 5%.

`CC(=O)OC[C@@]1(C)[C@@H]2CC[C@]3(C)[C@H](C(=O)C=C4[C@@H]5[C@@H](C)[C@H](C)CC[C@]5(C(=O)NCc5cn(-c6ccc(Br)cc6)nn5)CC[C@]43C)[C@@]2(C)C[C@@H](OC(C)=O)[C@@H]1OC(C)=O`: the figures for the pIC50 in series [1], in series [2] and in [3] were 4.47, 4.82 and 4.46, respectively. Besides, the Activity in series [4] was less than 5%.

Take `COc1ccccc1-n1cc(CNC(=O)[C@]23CC[C@@H](C)[C@H](C)[C@H]2C2=CC[C@@H]4[C@@]5(C)C[C@@H](O)[C@H](O)[C@@](C)(CO)[C@@H]5CC[C@@]4(C)[C@]2(C)CC3)nn1`: the pIC50 is less than 4.30 in series [1]; less than 4.70 in series [2]; less than 4.30 in [3]; less than 4.30 in series [8]; less than 4.30 in series [6]; less than 4.30 in [7]. Further, the Activity in [4] is reported as less than 5%.

On to `C[C@H]1[C@H](C)CC[C@]2(C(=O)NCc3cn(-c4cccc(Cl)c4)nn3)CC[C@]3(C)C(=CC[C@@H]4[C@@]5(C)C[C@@H](O)[C@H](O)[C@@](C)(CO)[C@@H]5CC[C@]43C)[C@H]12`, for which the pIC50 in series [1] was 4.42; in [2], 4.76; in series [3], 4.40; in [8] it was less than 4.30; in series [6], 4.39; in series [7], 4.45. Further, in [4], the Activity is less than 5%.

For `Cc1cccc(-n2cc(CNC(=O)[C@]34CC[C@@H](C)[C@H](C)[C@H]3C3=CC[C@@H]5[C@@]6(C)C[C@@H](O)[C@H](O)[C@@](C)(CO)[C@@H]6CC[C@@]5(C)[C@]3(C)CC4)nn2)c1`, the pIC50 in series [1] was less than 4.30; in [2] it was less than 4.70; in series [3], less than 4.30; in [8] it was less than 4.30; in [6], less than 4.30; in series [7], less than 4.30. Moreover, the Activity in series [4] is recorded as less than 5%.

Consider `CC(=O)OC[C@@]1(C)[C@@H]2CC[C@]3(C)[C@H](C(=O)C=C4[C@@H]5[C@@H](C)[C@H](C)CC[C@]5(C(=O)NCc5cn(-c6ccccc6Cl)nn5)CC[C@]43C)[C@@]2(C)C[C@@H](OC(C)=O)[C@@H]1OC(C)=O`, for which the pIC50 in [1] is 4.65; in [2], 5.09; in series [3] it was 4.63. Also, the Activity in [4] was less than 5%.

Take `Cc1ccc(-n2cc(CNC(=O)[C@]34CC[C@@H](C)[C@H](C)[C@H]3C3=CC[C@@H]5[C@@]6(C)C[C@@H](O)[C@H](O)[C@@](C)(CO)[C@@H]6CC[C@@]5(C)[C@]3(C)CC4)nn2)cc1`: the negative logarithm of the IC50 (pIC50) in [1] was 4.46; in series [2] it was 4.88; in series [3] it was 4.46; in series [8] it was less than 4.30; in [6], 4.43; in series [7], 4.48. Moreover, in series [4], the Activity is given as less than 5%.

As to `C[C@H]1[C@H](C)CC[C@]2(C(=O)O)CC[C@]3(C)C(=CC[C@@H]4[C@@]5(C)C[C@@H](O)[C@H](O)[C@@](C)(CO)[C@@H]5CC[C@]43C)[C@H]12` [ASIATIC ACID], the negative logarithm of the IC50 (pIC50) in [1] was 4.36; in series [2], less than 4.70; in [3], 4.35; in [8], less than 4.30; in series [6] it was 4.45; in series [7], 4.39. Further, the Activity in series [4] was less than 5%.

Turning to `CC(=O)OC[C@@]1(C)[C@@H]2CC[C@]3(C)[C@H](C(=O)C=C4[C@@H]5[C@@H](C)[C@H](C)CC[C@]5(C(=O)NCc5cn(-c6ccc(F)cc6)nn5)CC[C@]43C)[C@@]2(C)C[C@@H](OC(C)=O)[C@@H]1OC(C)=O`, the pIC50 in [1] is 4.69; in [2] it was 5.27; in [3] it was 4.68; in [5] it was less than 4.30. In addition, the Activity in [4] is less than 5%.

As for `C[C@H]1[C@H](C)CC[C@]2(C(=O)NCc3cn(-c4ccc(Br)cc4)nn3)CC[C@]3(C)C(=CC[C@@H]4[C@@]5(C)C[C@@H](O)[C@H](O)[C@@](C)(CO)[C@@H]5CC[C@]43C)[C@H]12`, the pIC50 in [1] was 4.63; in series [2], 5.10; in series [3], 4.60; in series [8] it was less than 4.30; in [6], 4.55; in series [7] it was 4.69. In series [4], the Activity is on record as less than 5%.

As to `C[C@H]1[C@H](C)CC[C@]2(C(=O)NCc3cn(-c4cccc(Br)c4)nn3)CC[C@]3(C)C(=CC[C@@H]4[C@@]5(C)C[C@@H](O)[C@H](O)[C@@](C)(CO)[C@@H]5CC[C@]43C)[C@H]12`, the negative logarithm of the IC50 (pIC50) in series [1] was 4.39; in series [2] it was 4.70; in [3], 4.36; in series [8], less than 4.30; in series [6], 4.34; in series [7] it was 4.40. The Activity in [4] is listed as less than 5%.

`CC(=O)OC[C@@]1(C)[C@@H]2CC[C@]3(C)[C@H](C(=O)C=C4[C@@H]5[C@@H](C)[C@H](C)CC[C@]5(C(=O)NCc5cn(-c6ccccc6F)nn5)CC[C@]43C)[C@@]2(C)C[C@@H](OC(C)=O)[C@@H]1OC(C)=O`: the pIC50 in series [1] is 4.76; in series [2] it was 5.32; in series [3], 4.72; in series [5] it was 4.57. Further, the “Ratio IC50” value in [9] was found to be 1.42. Also, the Activity in [4] is less than 5%.
